Laboratory results reported in patent US12492188B2, “1H-benzo[D]imidazole derivatives as TLR9 inhibitors for the treatment of fibrosis” (BRISTOL-MYERS SQUIBB COMPANY, priority 2020, dated 2025).
Like-named read-outs stand apart in the source and are kept apart here.

Experiments:
Type in all cases: cell-based
human TLR9 = target: T1, human TLR9 (Homo sapiens, UniProt Q9NR96); test: TLR9 inhibition reporter assay (HEK-Blue cells, secreted embryonic alkaline phosphatase reporter)
T1 construct: host or cells: HEK-Blue cells (HEK293-derived reporter line)
T1 sequence (Q9NR96 26-1032): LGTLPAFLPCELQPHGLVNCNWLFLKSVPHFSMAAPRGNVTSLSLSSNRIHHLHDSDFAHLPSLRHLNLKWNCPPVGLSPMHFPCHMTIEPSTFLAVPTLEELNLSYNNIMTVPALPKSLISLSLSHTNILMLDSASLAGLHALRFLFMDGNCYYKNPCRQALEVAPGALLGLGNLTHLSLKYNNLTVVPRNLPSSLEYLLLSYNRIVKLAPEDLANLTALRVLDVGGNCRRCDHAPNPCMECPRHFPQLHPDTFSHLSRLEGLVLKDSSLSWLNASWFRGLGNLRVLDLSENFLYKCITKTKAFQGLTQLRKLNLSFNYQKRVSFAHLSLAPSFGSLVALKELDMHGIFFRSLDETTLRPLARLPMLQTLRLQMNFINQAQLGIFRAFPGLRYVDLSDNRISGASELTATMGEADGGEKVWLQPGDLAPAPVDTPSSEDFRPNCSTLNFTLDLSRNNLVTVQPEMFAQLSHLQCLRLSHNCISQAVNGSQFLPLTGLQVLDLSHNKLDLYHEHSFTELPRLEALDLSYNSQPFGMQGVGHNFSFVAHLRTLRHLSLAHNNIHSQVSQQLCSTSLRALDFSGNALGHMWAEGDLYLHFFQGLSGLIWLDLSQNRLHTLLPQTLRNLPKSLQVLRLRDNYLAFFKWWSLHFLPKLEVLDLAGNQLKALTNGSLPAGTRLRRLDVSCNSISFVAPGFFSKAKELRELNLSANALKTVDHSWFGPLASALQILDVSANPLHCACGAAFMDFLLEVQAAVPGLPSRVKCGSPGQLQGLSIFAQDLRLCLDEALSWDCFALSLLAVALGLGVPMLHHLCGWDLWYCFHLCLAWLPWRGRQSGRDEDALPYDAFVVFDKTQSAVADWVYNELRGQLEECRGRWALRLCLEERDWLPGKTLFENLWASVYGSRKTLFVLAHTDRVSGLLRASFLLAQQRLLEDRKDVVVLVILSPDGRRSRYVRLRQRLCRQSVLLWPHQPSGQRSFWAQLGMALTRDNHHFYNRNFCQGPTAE
In short: (§1)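 HEK-Blue cells overexpressing the respective receptor, with an NF-κB/AP-1-driven SEAP reporter, were pre-treated with compound (0.05 nM–50 μM) for 30 min at room temperature. Stimulation used gardiquimod 7.5 μM (TLR7), R848 15.9 μM (TLR8) or ODN2006 5 nM (TLR9); SEAP was read after 22 h at 37 °C as percent inhibition.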

human TLR7 = target: T2, human TLR7 (Homo sapiens, UniProt Q9NYK1); test: TLR7 inhibition reporter assay (HEK-Blue cells, secreted embryonic alkaline phosphatase reporter); details: HEK-Blue cells overexpressing human TLR7, stimulated with gardiquimod 7.5 μM; read-out: TLR 7 IC50
T2 construct: host or cells: HEK-Blue cells (HEK293-derived reporter line)
T2 sequence (Q9NYK1 27-1049): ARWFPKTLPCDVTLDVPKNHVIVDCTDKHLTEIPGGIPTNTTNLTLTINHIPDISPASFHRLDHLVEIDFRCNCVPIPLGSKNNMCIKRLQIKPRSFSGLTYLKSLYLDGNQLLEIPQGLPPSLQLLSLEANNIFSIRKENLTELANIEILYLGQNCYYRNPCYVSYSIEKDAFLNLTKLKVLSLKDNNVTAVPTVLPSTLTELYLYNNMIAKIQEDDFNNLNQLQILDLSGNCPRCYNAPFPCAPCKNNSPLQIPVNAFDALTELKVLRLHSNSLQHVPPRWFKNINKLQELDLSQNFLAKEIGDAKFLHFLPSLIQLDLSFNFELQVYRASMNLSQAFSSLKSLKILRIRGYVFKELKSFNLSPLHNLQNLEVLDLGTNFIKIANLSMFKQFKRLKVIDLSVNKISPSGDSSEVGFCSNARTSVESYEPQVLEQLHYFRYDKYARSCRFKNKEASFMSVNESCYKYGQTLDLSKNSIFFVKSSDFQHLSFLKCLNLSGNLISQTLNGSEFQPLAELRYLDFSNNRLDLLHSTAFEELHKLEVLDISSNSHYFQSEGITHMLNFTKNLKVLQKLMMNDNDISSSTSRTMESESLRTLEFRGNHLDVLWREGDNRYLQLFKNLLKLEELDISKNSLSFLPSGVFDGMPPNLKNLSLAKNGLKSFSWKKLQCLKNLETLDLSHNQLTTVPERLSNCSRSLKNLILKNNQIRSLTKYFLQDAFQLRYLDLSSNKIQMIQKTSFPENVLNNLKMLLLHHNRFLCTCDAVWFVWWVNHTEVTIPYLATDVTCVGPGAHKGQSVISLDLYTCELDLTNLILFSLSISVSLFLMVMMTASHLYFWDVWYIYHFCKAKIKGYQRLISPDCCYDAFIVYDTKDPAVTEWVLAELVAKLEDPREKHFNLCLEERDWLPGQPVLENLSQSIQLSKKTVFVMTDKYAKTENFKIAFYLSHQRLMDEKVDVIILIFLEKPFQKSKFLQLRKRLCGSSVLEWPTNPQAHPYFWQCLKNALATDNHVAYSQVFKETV
In short: as §1

human TLR8 = target: T3, human TLR8 (Homo sapiens, UniProt Q9NR97); test: TLR8 inhibition reporter assay (HEK-Blue cells, secreted embryonic alkaline phosphatase reporter); details: HEK-Blue cells overexpressing human TLR8, stimulated with R848 15.9 μM; read-out: TLR 8 IC50
T3 construct: host or cells: HEK-Blue cells (HEK293-derived reporter line)
T3 sequence (Q9NR97 27-1041): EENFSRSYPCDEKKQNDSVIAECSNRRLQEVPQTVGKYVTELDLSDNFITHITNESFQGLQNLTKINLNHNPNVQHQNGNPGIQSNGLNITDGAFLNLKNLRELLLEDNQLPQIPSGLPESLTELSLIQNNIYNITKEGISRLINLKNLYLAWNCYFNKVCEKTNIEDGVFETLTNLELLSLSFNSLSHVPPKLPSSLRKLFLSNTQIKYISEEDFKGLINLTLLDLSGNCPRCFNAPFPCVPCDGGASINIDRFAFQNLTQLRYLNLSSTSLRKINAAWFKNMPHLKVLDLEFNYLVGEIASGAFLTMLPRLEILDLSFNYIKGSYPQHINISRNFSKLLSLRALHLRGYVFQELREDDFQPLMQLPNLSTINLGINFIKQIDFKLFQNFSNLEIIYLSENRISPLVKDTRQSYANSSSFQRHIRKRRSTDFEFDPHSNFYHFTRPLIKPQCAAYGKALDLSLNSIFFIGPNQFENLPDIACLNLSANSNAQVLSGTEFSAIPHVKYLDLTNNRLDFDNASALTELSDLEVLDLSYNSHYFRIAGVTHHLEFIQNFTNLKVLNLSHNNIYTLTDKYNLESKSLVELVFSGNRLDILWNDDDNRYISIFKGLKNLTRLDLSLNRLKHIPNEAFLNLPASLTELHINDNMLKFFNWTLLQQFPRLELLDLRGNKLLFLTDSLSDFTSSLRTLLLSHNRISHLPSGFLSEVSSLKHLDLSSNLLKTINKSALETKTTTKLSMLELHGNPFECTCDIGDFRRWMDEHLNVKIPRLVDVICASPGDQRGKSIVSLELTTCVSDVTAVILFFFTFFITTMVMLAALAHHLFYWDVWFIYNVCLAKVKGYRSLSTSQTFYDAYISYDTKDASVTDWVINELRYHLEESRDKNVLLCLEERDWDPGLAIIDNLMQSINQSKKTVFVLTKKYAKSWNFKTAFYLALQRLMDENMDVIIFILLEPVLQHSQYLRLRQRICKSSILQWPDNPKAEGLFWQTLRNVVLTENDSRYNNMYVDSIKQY
In short: as §1

[1] = HEK-Blue cells overexpressing human TLR9, stimulated with ODN2006 5 nM, read-out: TLR 9 IC50

Row | SMILES | IC50 (human TLR9) | IC50 (human TLR9; [1]) | IC50 (human TLR7) | IC50 (human TLR8)
1 | Cc1cc(C2CCN(C3CC4CCC(C3)N4C3CCC3)CC2)cc2c1nc(-c1ccc(S(C)(=O)=O)cc1)n2C (single isomer, unassigned) [Example 153, 6-(1-(8-cyclobutyl-8-azabicyclo[3.2.1]octan-3-yl)piperidin-4-yl)-1,4-dimethyl-2-(4-(methylsulfonyl)phenyl)-1H-benzo[d]imidazole] | 120 nM | 12.3 nM | 14300 nM | > 25000 nM
2 | Cc1cc(C2CCN(C3CC4CCC(C3)N4CC3CCC3)CC2)cc2c1nc(-c1ccc(S(C)(=O)=O)cc1)n2C (single isomer, unassigned) [Example 156, 6-(1-(8-(cyclobutylmethyl)-8-azabicyclo[3.2.1]octan-3-yl)piperidin-4-yl)-1,4-dimethyl-2-(4-(methylsulfonyl)phenyl)-1H-benzo[d]imidazole] | 31 nM | 31 nM | 8900 nM | > 25000 nM
3 | Cc1cc(C2CCN(C3CC4CCC(C3)N4C3COC3)CC2)cc2c1nc(-c1ccc(S(C)(=O)=O)cc1)n2C (single isomer, unassigned) [Example 158, 1,4-dimethyl-2-(4-(methylsulfonyl)phenyl)-6-(1-(8-(oxetan-3-yl)-8-azabicyclo[3.2.1]octan-3-yl)piperidin-4-yl)-1H-benzo[d]imidazole] | 160 nM | 1610 nM | > 25000 nM | > 25000 nM
4 | Cc1cc(C2CCN(C3CC4CCC(C3)N4C3COC3)CC2)cc2c1nc(-c1ccc(S(C)(=O)=O)cc1)n2C (single isomer, unassigned) [Example 159, 1,4-dimethyl-2-(4-(methylsulfonyl)phenyl)-6-(1-(8-(oxetan-3-yl)-8-azabicyclo[3.2.1]octan-3-yl)piperidin-4-yl)-1H-benzo[d]imidazole] | 930 nM | 934 nM | > 25000 nM | > 25000 nM
5 | Cc1cc(C2CCN(C3CC4CCC(C3)N4C3CCOCC3)CC2)cc2c1nc(-c1ccc(S(C)(=O)=O)cc1)n2C (single isomer, unassigned) [Example 160, 1,4-dimethyl-2-(4-(methylsulfonyl)phenyl)-6-(1-(8-(tetrahydro-2H-pyran-4-yl)-8-azabicyclo[3.2.1]octan-3-yl)piperidin-4-yl)-1H-benzo[d]imidazole] | 52 nM | 52 nM | 23500 nM | > 25000 nM
6 | Cc1cc(C2CCN(C3CC4CCC(C3)N4C3CCOCC3)CC2)cc2c1nc(-c1ccc(S(C)(=O)=O)cc1)n2C (single isomer, unassigned) [Example 161, 1,4-dimethyl-2-(4-(methylsulfonyl)phenyl)-6-(1-(8-(tetrahydro-2H-pyran-4-yl)-8-azabicyclo[3.2.1]octan-3-yl)piperidin-4-yl)-1H-benzo[d]imidazole] | 210 nM | 211 nM | > 25000 nM | > 25000 nM
7 | COc1ccc(-c2nc3c(C)cc(C4CCN(C5CC6CCC(C5)N6C5COC5)CC4)cc3n2C)cc1OC (single isomer, unassigned) [Example 164, 2-(3,4-dimethoxyphenyl)-1,4-dimethyl-6-(1-(8-(oxetan-3-yl)-8-azabicyclo[3.2.1]octan-3-yl)piperidin-4-yl)-1H-benzo[d]imidazole] | 110 nM | 109 nM | > 25000 nM | > 25000 nM

Next, values leading:

Row | IC50 (human TLR9) | IC50 (human TLR9; [1]) | IC50 (human TLR7) | IC50 (human TLR8) | SMILES
8 | 30 nM | 30 nM | 9000 nM | > 25000 nM | Cc1cc(C2CCN(C3CC4CCC(C3)N4CC3CC3)CC2)cc2c1nc(-c1ccc(S(C)(=O)=O)cc1)n2C (single isomer, unassigned) [Example 154, 6-(1-(8-(cyclopropylmethyl)-8-azabicyclo[3.2.1]octan-3-yl)piperidin-4-yl)-1,4-dimethyl-2-(4-(methylsulfonyl)phenyl)-1H-benzo[d]imidazole]
9 | 61 nM | 61 nM | 19900 nM | > 25000 nM | COCCN1C2CCC1CC(N1CCC(c3cc(C)c4nc(-c5ccc(S(C)(=O)=O)cc5)n(C)c4c3)CC1)C2 (single isomer, unassigned) [Example 162, 6-(1-(8-(2-methoxyethyl)-8-azabicyclo[3.2.1]octan-3-yl)piperidin-4-yl)-1,4-dimethyl-2-(4-(methylsulfonyl)phenyl)-1H-benzo[d]imidazole]
10 | 600 nM | 599 nM | 6200 nM | > 25000 nM | COCCN1C2CCC1CC(N1CCC(c3cc(C)c4nc(-c5ccc(S(C)(=O)=O)cc5)n(C)c4c3)CC1)C2 (single isomer, unassigned) [Example 163, 6-(1-(8-(2-methoxyethyl)-8-azabicyclo[3.2.1]octan-3-yl)piperidin-4-yl)-1,4-dimethyl-2-(4-(methylsulfonyl)phenyl)-1H-benzo[d]imidazole]
